Data from US20150191445A1, “ACYL-HYDRAZONE AND OXADIAZOLE COMPOUNDS, PHARMACEUTICAL COMPOSITIONS CONTAINING THE SAME AND USES THEREOF” (Universidade Federal de Santa Catarina, priority 2011, published 2015).
Entries after “also recorded” stand apart in the source; their conditions may differ.

Assays:
[1] = system: human leukemic Jurkat cells and HEK; assay: Screening of compounds by cell viability assay (MTT) in leukemic cells; assay type: cell-based; conditions: leukemic cells of Jurkat and HEK strains
Method: RPMI-1640 medium with 10% FBS (fetal bovine serum), 100 IU/mL penicillin, 100 µg/mL streptomycin and incubated at 37° C. and 5% CO2. Cytotoxicity assays were performed according to the method described in the literature (Pieters, R.; et al. In vitro drug sensitivity of cells from children with leukemia using the MTT assay with improved culture conditions. Blood, 1990, 76, 2327-2336; Pieters, R.; et al. Relation of cellular drug resistance to long-term clinical outcome in childhood acute lymphoblastic leukaemia. Lancet, 1991, 338, 399-403 e Kaspers, G. J.; et al. In vitro cellular drug resistance and prognosis in newly diagnosed childhood acute lymphoblastic leukemia. Blood, 1997, 90, 2723). Cells were resuspended at a concentration of 3.75 10^5 cells/mL in culture medium as described. Eighty microliters of this suspension were seeded into plates with 96 round-bottom wells, containing 20 microliters of different concentrations of compound or vehicle alone. Each treatment was done in triplicate. […] After incubating overnight, absorbance reading at 570 nm was carried out. The percentage of cells surviving the treatment were calculated relative to the number of surviving cells in the medium without addition of the compounds in question (“negative control”). […]

Jurkat cells = assay: Cell cycle analysis, propidium iodide flow cytometry; assay type: cell-based, human; conditions: 125 nM, 18 h
Method: The cells were incubated for 12 hours in fresh medium before experiments. Two million cells from the Jurkat line were incubated for 12 h, 18 h, 24 h and 30 h in RPMI-640 medium supplemented with 10% Fetal Bovine Serum (FCS) and 0.2% Penicillin/Streptomycin (PS) with a concentration of 125 nM of compound 07 or DMSO (vehicle).
The cells treated or not with compound 07 were fixed in 70% ethanol for 2 hours, washed in PBS and incubated for 15 min at 37° C. in 1 mL of Triton X-100 0.1% 0.2 mg/mL of RNAse and 20 μg/mL propidium iodide in PBS. 20,000 events were collected on FACSCalibur flow cytometer with red fluorescence quantification, excluding any cell aggregates by the standard width vs. red fluorescence peak area. The data deconvolution to obtain the percentage of cells in each phase of cell cycle was performed using ModFit software v2.0.

[2] = system: Bone marrow cells from healthy donors; assay: Colony formation assay of hematopoietic cells; assay type: cell-based, human; conditions: for Colony formation BFU-E / Colony formation CFU-E / Colony formation CFU-G / Colony formation CFU-GEMM / Colony formation CFU-GM / Colony formation CFU-M: two weeks of culture
Method: Cytotoxicity of compound 07 was also evaluated with a colony formation assay of hematopoietic cells. A “HSC-CFU complete with Epo” kit from Miltenyi (Cat #130-091-280) was used following the manufacturer's recommendations. Bone marrow cells from healthy donors were cultured in semi-solid methylcellulose medium supplemented with bovine fetal serum, bovine serum albumin, different growth factors (GM-CSF, G-CSF, SCF, IL-3, IL-6, Epo) and compound 07, whose action on hematopoiesis was evaluated. After two weeks of culture at 37° C. and 5% CO2, an assessment of the number of granulocytes (CFU-G), macrophage (CFU-M), granulocyte/macrophage (CFU-GM), erythroid (BFU-E and CFU-E) and mixed (CFU-GEMM) colonies was carried out.

## COc1cc(C(=O)NN=Cc2cccc3ccccc23)cc(OC)c1OC [Compound 07]
[1]
  antileukemic activity: excellent antileukemic activity; also recorded: significant antileukemic activity
Jurkat cells
  effect on cell cycle: cell cycle arrest in G2/M
[2]; 2 nM
  Colony formation BFU-E: 39%
  Colony formation CFU-E: 23%
  Colony formation CFU-G: 11%
  Colony formation CFU-GEMM: 1%
  Colony formation CFU-GM: 52%
  Colony formation CFU-M: 17%
[2]; 20 nM
  effect on erythrocyte formation: inhibitory activity on erythrocyte formation comparable to a PI3K inhibitor
  effect on granulocytes and macrophages: inhibitory activity against granulocytes and macrophages, although low in intensity when compared to a F13K inhibitor
  Colony formation BFU-E: 26%
  Colony formation CFU-E: 11%
  Colony formation CFU-G: 14%
  Colony formation CFU-GEMM: 2%
  Colony formation CFU-GM: 27%
  Colony formation CFU-M: 25%
[2]; 200 nM
  effect on hematopoiesis: completely inhibited hematopoiesis
  Colony formation BFU-E: 0%
  Colony formation CFU-E: 0%
  Colony formation CFU-G: 0%
  Colony formation CFU-GEMM: 0%
  Colony formation CFU-GM: 0%
  Colony formation CFU-M: 0%
